{"source": "patent US5637582A", "about": "“Peripheral circulation improving agent” (priority 1992, dated 1997)", "key": {"femoral artery [1]": {"tested_on": "femoral artery", "assay": "Increase in femoral arterial blood flow in anesthetized dogs, cumulative i.v. dosing (Experimental Example 1)", "format": "in vivo, dog", "details": "60 min after administration", "protocol": "(§1) Adult dogs (one group consisting of a dog) were intravenously given the test compound under anesthesia and artificial respiration successively at intervals of 60 minutes so that the dose can be 10, 30, 100 and 300 μg/kg body weight, and the blood flow of femoral artery was measured with a time course. […] An increase in the femoral arterial blood flow was calculated by subtracting the blood flow before the administration of the first dose of test compound as the standard value (the base line) from that 60 minutes after each administration."}, "femoral artery [2]": {"tested_on": "femoral artery", "assay": "Time course of femoral arterial blood flow in dogs after i.v. administration (Experimental Example 2)", "format": "in vivo, dog"}, "femoral artery [3]": {"tested_on": "femoral artery", "assay": "Maximum increase in femoral arterial blood flow in anesthetized dogs, cumulative i.v. dosing (Experimental Example 3)", "format": "in vivo, dog", "details": "maximum during 60 min", "protocol": "as §1, with “consisting of 5 dogs) were intravenously” for “consisting of a dog) were intravenously”, “10, 30, 100, 300 and 1000” for “10, 30, 100 and 300”, “300 and 1000 μg/kg body” for “100 and 300 μg/kg body”, “from that of maximum during an interval of 60 minutes” for “from that 60 minutes”"}, "femoral artery [4]": {"tested_on": "femoral artery", "assay": "Femoral arterial blood flow, hind leg cooling model of Raynaud's disease (Experimental Example 5)", "format": "in vivo, male SD rat", "protocol": "(Lower limbs peripheral circulation disorder model due to hind leg cooling: Model of Raynaud's disease)\nA catheter was inserted into left common carotid artery of a male SD rat (one group consisting of 5 rats) under anesthesia, and the arterial blood pressure was measured with a standard pressure transducer (manufactured by Nihon Koden. TP-200T, trade name) through a catheter attached to the artery. After isolating the left femoral artery from the peripheral connective tissue, a flow probe (HDP 10-20R: F 1.0 mm) of a Doppler blood flow meter (manufactured by Crystal Biotec Co., PD20, trade name) was attached thereto and was connected to the Doppler blood flow meter to measure the artery blood flow. After the operation, at the time that the state became stable, the left hind leg was exposed to a perfused solution at 10° C. to decrease the femoral arterial blood flow. After 30 minutes, 1 ml/kg of a 0.9% NaCl solution or 300 μg/kg of the test compound A was intravenously administered and the state was observed. In the case of Beraprost Na, continuous injection in an amount of […] was carried out after 30 minutes from cooling. The compounds to be used were each dissolved in a 0.9% NaCl solution.\nThe present model is disclosed, for example, in Nishio et al, \"Effect of Beraprost Sodium on Peripheral Circulatory Disturbances Induced by Various Stimuli\", Arzneim.-Forsch./Drug Res., 39 (II), Nr. 10 (1989), pp. 1229-1234. Note particularly the section \"2.4. Sphygmometry in rat hind paw\", at page 1230."}, "hind leg edema": {"tested_on": "hind leg edema", "assay": "Hind leg frostbite model: model of Raynaud's disease (Experimental Example 7)", "format": "in vivo, male SD rat", "protocol": "(Hind leg frostbite model: Model of Raynaud's disease)\nLeft hind leg of male SD rat (one group: 3 to 5 rats) was dipped in dry ice-ethanol for 2 seconds, and after 30 minutes, 30 mg/kg of a test compound dissolved in pure water was administered to the rat and then orally administered twice a day for 6 days continuously. At the final day of the experiment, volumes of both hind legs (below ankle joint) of the rat were measured by a water substitution method and an edema ratio was calculated from the following equation. Also, an inhibition ratio of the test compound administered group was obtained by comparing the edema ratio of the group in which the test compound was not administered. [formula]\nThe present model is disclosed, for example, in Hayashi et al, \"Pharmacological Studies on Niceritrol (10), The Effects on Experimental Models of Peripherally Circulatory Insufficiency\", Applied Pharmacology, 24 (6): 859-864 (1982), noting particularly the section \"2. Effect on an experimental frostbite model\" on page 860."}, "mouse": {"tested_on": "mouse", "assay": "Acute oral toxicity in mouse", "format": "in vivo", "details": "1000 mg/kg oral, even after 2 days", "excerpt": "Furthermore, a (-)-cis-1,5-benzothiazepine derivative according to formula (I) has low toxicity and can be used safely."}, "arterial blood pressure": {"tested_on": "arterial blood pressure", "assay": "Change of arterial blood pressure in anesthetized dogs (Experimental Example 4)", "details": "100 μg/kg i.v.", "description": "(§2) Each test compound was intravenously administered to adult dogs (one group consisting of 2 or 4 dogs) under anesthesia and artificial respiration at a dose of 100 μg/kg body weight. Femoral arterial blood flow, vertebral arterial blood flow and arterial blood pressure were measured 1, 3, 5, 10, 20 and 30 minutes after the administration. The femoral arterial blood flow and vertebral arterial blood flow were measured with an electromagnetic blood flowmeter (manufactured by Nihon Koden, MFV-2100, trade name) through a flow probe attached to the femoral artery or vertebral artery. The arterial blood pressure was measured with a pressure transducer (manufactured by Millar, MICRO-TIP, Model SPC-350) through a catheter attached to the brachial artery.\n(§3) Changes of the femoral arterial blood flow, vertebral arterial blood flow and arterial blood pressure were estimated by comparing the values measured before and after the administration of the test compound."}, "vertebral artery": {"tested_on": "vertebral artery", "assay": "Change of vertebral arterial blood flow in anesthetized dogs (Experimental Example 4)", "details": "100 μg/kg i.v.", "description": "as §2, §3"}, "[5]": {"details": "30 mg/kg, orally twice a day for 6 days"}, "[6]": {"details": "G and H: one minute after, in words"}}, "data": [{"smiles": "CC(=O)O[C@@H]1C(=O)N(CCN(C)C)c2ccc(C)cc2S[C@@H]1c1ccc(C)cc1", "note": "[Compound A]", "values": [{"measurement": "Increase in femoral arterial blood flow", "setting": "femoral artery [1]; 10 μg/kg i.v.", "value": 13, "unit": "mL/min"}, {"measurement": "Increase in femoral arterial blood flow", "setting": "femoral artery [1]; 30 μg/kg i.v.", "value": 30, "unit": "mL/min"}, {"measurement": "Increase in femoral arterial blood flow", "setting": "femoral artery [1]; 100 μg/kg i.v.", "value": 34, "unit": "mL/min"}, {"measurement": "Increase in femoral arterial blood flow", "setting": "femoral artery [1]; 300 μg/kg i.v.", "value": 32, "unit": "mL/min"}, {"measurement": "Blood flow (femoral artery)", "setting": "femoral artery [2]; 100 μg/kg i.v., 30 min", "value": 136.3, "unit": "mL/min"}, {"measurement": "Increase in blood flow (femoral artery)", "setting": "femoral artery [2]; 100 μg/kg i.v., 30 min", "value": 55.5, "unit": "mL/min"}, {"measurement": "Blood flow (femoral artery)", "setting": "femoral artery [2]; 100 μg/kg i.v., 60 min", "value": 146.3, "unit": "mL/min"}, {"measurement": "Increase in blood flow (femoral artery)", "setting": "femoral artery [2]; 100 μg/kg i.v., 60 min", "value": 65.5, "unit": "mL/min"}, {"measurement": "Blood flow (femoral artery)", "setting": "femoral artery [2]; 100 μg/kg i.v., 120 min", "value": 143.5, "unit": "mL/min"}, {"measurement": "Increase in blood flow (femoral artery)", "setting": "femoral artery [2]; 100 μg/kg i.v., 120 min", "value": 62.8, "unit": "mL/min"}, {"measurement": "Blood flow (femoral artery)", "setting": "femoral artery [2]; 100 μg/kg i.v., 180 min", "value": 141.3, "unit": "mL/min"}, {"measurement": "Increase in blood flow (femoral artery)", "setting": "femoral artery [2]; 100 μg/kg i.v., 180 min", "value": 60.5, "unit": "mL/min"}, {"measurement": "Blood flow (femoral artery)", "setting": "femoral artery [2]; 100 μg/kg i.v., 240 min", "value": 141.5, "unit": "mL/min"}, {"measurement": "Increase in blood flow (femoral artery)", "setting": "femoral artery [2]; 100 μg/kg i.v., 240 min", "value": 60.8, "unit": "mL/min"}, {"measurement": "Blood flow (femoral artery)", "setting": "femoral artery [2]; 100 μg/kg i.v., 300 min", "value": 136.3, "unit": "mL/min"}, {"measurement": "Increase in blood flow (femoral artery)", "setting": "femoral artery [2]; 100 μg/kg i.v., 300 min", "value": 55.5, "unit": "mL/min"}, {"measurement": "Blood flow (femoral artery)", "setting": "femoral artery [2]; before administration (baseline)", "value": 80.8, "unit": "mL/min"}, {"measurement": "Increase in femoral arterial blood flow", "setting": "femoral artery [3]; 10 μg/kg i.v.", "value": 5.6, "unit": "mL/min"}, {"measurement": "Increase in femoral arterial blood flow", "setting": "femoral artery [3]; 30 μg/kg i.v.", "value": 40.4, "unit": "mL/min"}, {"measurement": "Increase in femoral arterial blood flow", "setting": "femoral artery [3]; 100 μg/kg i.v.", "value": 55.2, "unit": "mL/min"}, {"measurement": "Increase in femoral arterial blood flow", "setting": "femoral artery [3]; 300 μg/kg i.v.", "value": 61.4, "unit": "mL/min"}, {"measurement": "Femoral Arterial Blood Flow change", "setting": "femoral artery [4]; 0 min (before cooling and administration; 30 min = 0)", "value": "1.364 Δ ml/min"}, {"measurement": "Femoral Arterial Blood Flow change", "setting": "femoral artery [4]; 40 min, given at 30 min: A 300 μg/kg i.v., J 0.3 μg/kg/ml continuous injection", "value": "0.072 Δ ml/min"}, {"measurement": "Femoral Arterial Blood Flow change", "setting": "femoral artery [4]; 50 min, given at 30 min: A 300 μg/kg i.v., J 0.3 μg/kg/ml continuous injection", "value": "0.276 Δ ml/min"}, {"measurement": "Femoral Arterial Blood Flow change", "setting": "femoral artery [4]; 60 min, given at 30 min: A 300 μg/kg i.v., J 0.3 μg/kg/ml continuous injection", "value": "0.416 Δ ml/min"}, {"measurement": "Femoral Arterial Blood Flow change", "setting": "femoral artery [4]; 70 min, given at 30 min: A 300 μg/kg i.v., J 0.3 μg/kg/ml continuous injection", "value": "0.452 Δ ml/min"}, {"measurement": "Femoral Arterial Blood Flow change", "setting": "femoral artery [4]; 80 min, given at 30 min: A 300 μg/kg i.v., J 0.3 μg/kg/ml continuous injection", "value": "0.452 Δ ml/min"}, {"measurement": "Femoral Arterial Blood Flow change", "setting": "femoral artery [4]; 90 min, given at 30 min: A 300 μg/kg i.v., J 0.3 μg/kg/ml continuous injection", "value": "0.496 Δ ml/min"}, {"measurement": "% Inhibition of edema", "setting": "hind leg edema; [5]", "value": 27, "unit": "%"}, {"measurement": "Edema", "setting": "hind leg edema; [5]", "value": "32 ± 8", "unit": "%"}, {"measurement": "edema inhibition activity", "setting": "hind leg edema; rat hind leg frostbite model, in words", "value": "showed edema inhibition activity"}, {"measurement": "lethal toxicity", "setting": "mouse", "value": "no lethal toxicity was observed"}, {"measurement": "Arterial Blood Pressure change (side effects)", "setting": "arterial blood pressure; 1 min", "value": "-1.3 ΔmmHg"}, {"measurement": "Arterial Blood Pressure change (side effects)", "setting": "arterial blood pressure; 3 min", "value": "-0.8 ΔmmHg"}, {"measurement": "Arterial Blood Pressure change (side effects)", "setting": "arterial blood pressure; 5 min", "value": "-1.8 ΔmmHg"}, {"measurement": "Arterial Blood Pressure change (side effects)", "setting": "arterial blood pressure; 10 min", "value": "-1.8 ΔmmHg"}, {"measurement": "Arterial Blood Pressure change (side effects)", "setting": "arterial blood pressure; 20 min", "value": "-2.3 ΔmmHg"}, {"measurement": "Arterial Blood Pressure change (side effects)", "setting": "arterial blood pressure; 30 min", "value": "-0.5 ΔmmHg"}, {"measurement": "effect on arterial blood pressure", "setting": "arterial blood pressure; [6]", "value": "substantially no effect"}, {"measurement": "Vertebral Arterial Blood Flow change (side effects)", "setting": "vertebral artery; 1 min", "value": "0.3 Δ ml/min"}, {"measurement": "Vertebral Arterial Blood Flow change (side effects)", "setting": "vertebral artery; 3 min", "value": "0.0 Δ ml/min"}, {"measurement": "Vertebral Arterial Blood Flow change (side effects)", "setting": "vertebral artery; 5 min", "value": "-0.5 Δ ml/min"}, {"measurement": "Vertebral Arterial Blood Flow change (side effects)", "setting": "vertebral artery; 10 min", "value": "-1.5 Δ ml/min"}, {"measurement": "Vertebral Arterial Blood Flow change (side effects)", "setting": "vertebral artery; 20 min", "value": "-2.8 Δ ml/min"}, {"measurement": "Vertebral Arterial Blood Flow change (side effects)", "setting": "vertebral artery; 30 min", "value": "-2.5 Δ ml/min"}, {"measurement": "effect on vertebral arterial blood flow", "setting": "vertebral artery; [6]", "value": "substantially no effect"}]}]}
